Source: PubChem BioAssay AID179 (DTP/NCI, 2004)
The source made the active and inactive calls.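 The calls were made as follows: active = compounds giving half or more protection of infected cells from virus-caused growth loss, again on retest; inactive = the rest.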

Tested on: CEM cells HIV-1 protection, formazan growth assay
Experiment: NCI AIDS Antiviral Assay
Conditions: for IC50: measured here: growth of uninfected CEM cells
Procedure, shortened: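 Screen of anti-HIV-1 activity in human CEM cells using a formazan-based growth measurement at five drug concentrations. Hits with 50% or greater protection were repeated, and confirmation required reproducible complete protection.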

Compound	EC50	IC50	outcome
O=C(O)c1c(Cl)c(Cl)c(Cl)c(Cl)c1-c1c2ccc(=O)c(O)c-2oc2c(O)c(O)ccc12	> 83.2 µM	51.3 µM	–
O=C1CC(C2(c3ccc4c(c3)OCO4)SCCCS2)CO1 (stereo not given)	> 155 µM	> 155 µM	–
S=C1NC2=C(CSC/C2=C\c2cccc(Br)c2)C(c2cccc(Br)c2)N1 (stereo not given)	> 200 µM	19.5 µM	–
O=C(Oc1ccccc1)N(CCO)C(c1ccccc1)C(O)c1ccccc1 (stereo not given)	> 200 µM	5.25 µM	–
CCOP(=O)(OCC)C(NC(=O)OCC(Cl)(Cl)Cl)n1nnc(C(=O)OC)c1C(=O)OC (stereo not given)	> 200 µM	> 200 µM	–
C1CC[C@H]2SSC3CCCC[C@H]3SSC2C1 (stereo not given in full)	> 17.8 µM	> 17.8 µM	–
CCN1CCC(O)(c2ccc([N+](=O)[O-])cc2)C(C(=O)c2ccc([N+](=O)[O-])cc2)C1 (stereo not given)	> 200 µM	33.1 µM	–
CNC(=O)N(CCCCC(NC(C)=O)C(=O)NCc1ccccc1)Cc1ccccc1 (stereo not given)	> 589 µM	> 589 µM	–
COC(=O)c1c2c(cc3c1CC1(Cc4cc5c(c(C(C)=O)c4C1)CCCC5)C3)CCCC2 (stereo not given)	> 200 µM	> 200 µM	–
CC(=O)N(C(C)=O)c1nc2c(c(=O)n(C)c(=O)n2C)n1C	> 200 µM	> 200 µM	–
COC(=O)C(Cc1ccccc1)NP(=O)(O)OCC1OC(n2ccc(N)nc2=O)C(O)C1O (stereo not given)	> 200 µM	4.27 µM	–
CCCc1nc(NC#N)nc(C(=O)NC23CC4CC(CC(C4)C2)C3)c1C	> 355 µM	> 355 µM	–
CCn1cc(C(=O)O)c(=O)c2cccc(OC)c21	–	–	inactive
CC(=O)C1(c2ccccc2)CCNCC1	–	–	inactive
CNC(=O)N1CN(c2ccccc2)C2(CCN(Cc3ccccc3)CC2)C1=O	195 µM	> 200 µM	–
CN(O)C(=O)/C=C/c1ccc(OCc2cccc(Cl)c2)cc1	> 200 µM	46.8 µM	–
CCN(CC)Cc1c(C(=O)NCCO)[n+](=O)c2ccccc2n1[O-]	> 178 µM	> 178 µM	–
C[n+]1ccc(Nc2ccc(O)cc2)c2ccc(Cl)cc21	> 603 µM	11 µM	–
COc1ccc(N2C(=O)c3cc(C)cnc3S2(=O)=O)cc1	141 µM	> 200 µM	–
c1cncc(CSc2nc3ccccc3nc2-c2cccs2)c1	> 1.55 µM	> 1.55 µM	–
NC(=O)C(=CNc1nc(-c2ccc(Br)cc2)cs1)C(N)=O	> 200 µM	135 µM	–
Cc1ccc(C)c(NC(=O)CC/C(=N\NC(=O)c2c(O)ccc3ccccc23)C(C)C(=O)c2ccc(O)cc2)c1 (stereo not given)	> 27.5 µM	14.5 µM	–
COc1cc([N+](=O)[O-])ccc1N1C(=O)C2c3[nH]c4ccccc4c3C3CCC(C(C)(C)C)CC3C2C1=O (stereo not given)	> 200 µM	138 µM	–

Compound	EC50	IC50	outcome
CCN(Cc1ccccc1)c1ccc(/C=C/c2nccc3ccccc23)cc1	> 14.5 µM	14.1 µM	–
O=S(=O)(O)CCCCCO	> 200 µM	> 200 µM	–
COc1ccc(N=C(C)C(C)=Nc2ccc(OC)cc2)cc1	–	–	inactive
CC(C)NCCCNc1c2ccccc2nc2cccc([N+](=O)[O-])c12	> 0.2 µM	0.0316 µM	–
C=CC(C)(C)C(=C)C(=O)N(C)c1ccccc1I	> 200 µM	89.1 µM	–
C/C1=C\[C@H](C)C[C@H](C)OC(=O)C[C@H](c2ccc(O)cc2)NC(=O)[C@@H](Cc2c(Br)[nH]c3ccccc23)N(C)C(=O)[C@H](C)NC(=O)[C@@H](C)C1	> 2 µM	0.0302 µM	–
CC(=O)C(C(c1ccccc1)N1CCCc2ccccc21)N1CCOCC1 (stereo not given)	> 200 µM	61.7 µM	–
C=CCSCn1ncc2ccc([N+](=O)[O-])cc21	> 200 µM	33.9 µM	–
Cc1ccc(N=N/C(=N/NC(=O)c2ccccc2)c2ccc(N(CCC#N)CCC#N)cc2C)cc1	> 200 µM	14.8 µM	–
CCOC(=O)CN1C(=O)C(=O)c2ccccc21	> 200 µM	33.9 µM	–
Cn1c(=O)oc2cc(Br)ccc21	> 200 µM	> 200 µM	–
C=C(CCCCOCOCCOC)[Si](C)(C)C	> 138 µM	> 138 µM	–
CCN(CC)C(=S)SS(=O)(=O)c1ccc(NC(C)=O)cc1	> 200 µM	11 µM	–
COC(=O)C1=C(C(=O)OC)C(Cc2ccccc2)(OO)OC1=O (stereo not given)	> 200 µM	0.955 µM	–
COC(=O)CCC1=NCC(C)(C)O1	> 200 µM	> 200 µM	–
C/C=C/[C@H](O[Si](C)(C)C(C)(C)C)[C@@H](O)/C=C/C(=O)OCC	> 200 µM	28.8 µM	–
CN1c2ccccc2C(=O)Nc2cnc(Cl)nc21	> 200 µM	> 200 µM	–
O=C(CC1Sc2ccccc2NC1=O)Nc1ccc([N+](=O)[O-])cc1[N+](=O)[O-] (stereo not given)	> 67.6 µM	> 67.6 µM	–
CN(C)Cc1cc(N=Nc2cccc(Cl)c2)ccc1O	> 20 µM	4.79 µM	–
COc1cccc(OC)c1/C=C1\OC(=O)c2cccc(OC)c21	> 20 µM	1.17 µM	–
COCC(C)(COP(=O)(N1CCOCC1)N1CCOCC1)CC(C)COP(=O)(N1CCOCC1)N1CCOCC1 (stereo not given)	–	–	inactive
CC(C)(C)C1=CC(=O)C(Cl)(C(C)(C)C)C(Cl)C1=O (stereo not given)	> 20 µM	1.15 µM	–
COC(=S)NP(=O)(NC(=S)OC)NC(=S)OC	> 200 µM	> 200 µM	–

Compound	EC50	IC50	outcome
COC1/C=C/OC2(C)Oc3c(C)c(O)c4c(O)c(c(/C=N/N=C(\N)N[N+](=O)[O-])c(O)c4c3C2=O)NC(=O)C(C)=C/C=C/C(C)C(O)C(C)C(O)C(C)C(OC(C)=O)C1C (stereo not given)	–	–	inactive
O=C(SC1=NCCS1)SC1=NCCS1	–	–	inactive
CC12CC3CC(C)(C1)CC(SCCCCCN=C(N)CSSCC(N)=NCCCCCSC14CC5CC(C)(CC(C)(C5)C1)C4)(C3)C2	> 200 µM	26.9 µM	–
Nc1ccc2nc(-c3ccccn3)c(-c3ccccn3)nc2c1	123 µM	> 200 µM	–
CCC12OCC(C)(C)N1OC(=O)N2c1ccccc1 (stereo not given)	> 200 µM	> 200 µM	–
COC(=O)C1(C(=O)OC)CCCC2=NOC3CCC1C23 (stereo not given)	> 891 µM	575 µM	–
CN1C(=O)c2ccccc2Cc2c(N3CCCC3)ncnc21	> 17.8 µM	> 17.8 µM	–
CCOc1cnc([C@H]2CCC3[C@@H]4CC=C5C[C@@H](O)CC[C@]5(C)C4CC[C@@]32C)s1 (stereo not given in full)	> 61.7 µM	> 61.7 µM	–
CC(NCCCCCCNC(C)C(=O)O)C(=O)O (stereo not given)	> 589 µM	> 589 µM	–
NC(=O)NCCCC(NC(=O)OCCCCn1ccc(=O)[nH]c1=O)C(=O)O (stereo not given)	> 200 µM	> 200 µM	–
N/N=C(/CC(O)(C(F)(F)F)C(F)(F)F)c1ccccc1	> 200 µM	112 µM	–
CCCCS(=N)(=O)CCC(N)P(=O)(O)O (stereo not given)	> 200 µM	> 200 µM	–
N#Cc1nc(Nc2ccc(Cl)cc2)sc1N	> 525 µM	9.77 µM	–
CC/C=C/c1cc2c(c3[nH]ccc13)[C@@H](C)CC2C (stereo not given in full) (tested in a mixture with another compound)	–	–	inactive
COc1cccc(/C=C\c2ccc(O)cc2)c1	> 200 µM	4.27 µM	–
CC(C)(C)OC(=O)N1N=CCC1c1ccccc1 (stereo not given)	> 200 µM	> 200 µM	–
CC(=O)N(C(C)=O)c1cc2c3c(c1)CCCN3CCC2	> 200 µM	182 µM	–
CCOC(=O)C(Cl)(NC(=O)OCc1ccccc1)C(F)(F)F (stereo not given)	–	–	inactive
COc1ccc2[nH]c3c(c2c1)C(=O)c1ccncc1C3=O	> 20 µM	1.2 µM	–
C/C(=N\NC(=O)c1ccncc1)c1cccc(C(F)(F)F)c1	> 85.1 µM	> 85.1 µM	–
Cn1cnc([N+](=O)[O-])c1Sc1ncn[nH]1	> 1100 µM	17.8 µM	–
O=C(Nc1ccc(Cl)cc1)c1ccccc1[Se][Se]c1ccccc1C(=O)Nc1ccc(Cl)cc1	2.95 µM	8.51 µM	–
Cc1cc(=O)n2c(nc3ccccc32)s1	> 200 µM	> 200 µM	–

Compound	EC50	IC50	outcome
CCOC(=S)SSC(=S)OCC	> 200 µM	107 µM	–
CN1CCN(/C(N)=C(\C#N)C(=O)Nc2ccccc2)CC1	> 200 µM	> 200 µM	–
CN(C)CCNC(=O)c1cccc(N(C)C(=O)c2ccccc2)c1[N+](=O)[O-]	> 200 µM	> 200 µM	–
O=C(O)CSSCC(=O)O	> 200 µM	> 200 µM	–
c1ccc([S+]([CH2][Hg][CH2][S+](c2ccccc2)c2ccccc2)c2ccccc2)cc1	> 30.2 µM	10 µM	–
O=C1NC(=O)c2c1n(Cc1ccccc1)c(=O)n2Cc1ccccc1	> 77.6 µM	> 77.6 µM	–
CCOC(=O)c1c(N2CCCC2)nsc1Nc1ccc(F)cc1	> 200 µM	23.4 µM	–
Nc1nc(N)c(CCCCc2ccccc2)c(C=O)n1	–	–	inactive
Nc1ccc(S(=O)(=O)c2ccc(N)cc2)cc1	–	–	inactive
CCCCc1c2c(nc3c1CCCC3=O)C(=O)CCC2	> 5.37 µM	> 5.37 µM	–
COC(=O)/C(C#N)=C\n1c(=S)[nH]c2ccccc21	> 200 µM	> 200 µM	–
C=C(C)[C@H]1Cc2c(ccc3c2O[C@@H]2COc4cc(OC)c(OC)cc4[C@@H]2C3=O)O1	> 2 µM	0.0479 µM	–
COC(=O)Cc1c(C2C(CC(=O)OC)c3ccccc3N2C2OC(CO)C(O)C(O)C2O)[nH]c2ccccc12 (stereo not given)	112 µM	151 µM	–
CC12OC3(O)C4C5CC(C6C5C3C61)C42 (stereo not given)	–	–	inactive
Cn1ccc2c3c(ccc21)C(N1CCOCC1)=CS(=O)(=O)O3	–	–	inactive
N#Cc1c(=O)n(O)c2ccccc2[n+]1[O-]	> 200 µM	> 200 µM	–
CCOC(=O)CCN1C(=O)c2c(NC(=O)C(=O)O)cccc2S1(=O)=O	> 200 µM	> 200 µM	–
O=c1[nH]c2cc([N+](=O)[O-])ccc2nc1/C(=N/Nc1ccccc1)C(O)c1ccco1 (stereo not given)	> 234 µM	89.1 µM	–
CCN(CC)/N=C\c1c2ccccc2cc2ccccc12	> 200 µM	85.1 µM	–
O=C(Nc1ccccc1)N1CCNC1=S	162 µM	> 200 µM	–
COc1ccc(N2C(=O)/C(=C\c3cccc(Oc4ccccc4)c3)S(=O)(=O)C2c2ccccc2)cc1 (stereo not given)	> 200 µM	28.8 µM	–
O=c1c2c(-c3ccccc3)c3ccccc3nc2cnn1-c1ccccc1	> 79.4 µM	> 79.4 µM	–
